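Method: 48-hour compound exposure of cells in 96-well plates, five concentrations, linear interpolation of endpoints. The concentration for 50% growth inhibition is given as GI50.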 Active and inactive are the calls of the source. Rule as the data show it: active = GI50 up to about 1.1 µM and inactive = higher.
Key:
Test in all cases: growth of human tumour cells (NCI), 48 h
[1] = system: A498
[2] = system: COLO 205
[3] = system: DLD-1
[4] = system: EKVX
[5] = system: HCC 2998
[6] = system: HL-60
[7] = system: KM12
[8] = system: MOLT-4
[9] = system: Malme-3M
[10] = system: NCI-H23
[11] = system: OVCAR-5
[12] = system: RPMI-8226
[13] = system: SK-MEL-28
[14] = system: U-251
[15] = system: UACC-62
[16] = system: LOX IMVI

Measured: GI50

COc1ccc([C@@]2(O)c3c(ccc(O)c3OC)[C@H]2OC)c(OC)c1
inactive: [1] > 100 µM | [2] 44.2 µM | [3] 47.3 µM | [4] > 100 µM | [5] 44.2 µM | [6] 31.6 µM | [7] 39.4 µM | [8] 34.7 µM | [9] > 100 µM | [10] 34.6 µM | [11] > 100 µM | [12] 30.1 µM | [13] 47.8 µM | [14] 45.8 µM | [15] > 10 µM

C[C@@H](CC(O)C1OC1(C)C)[C@@H]1CC[C@]2(C)C3=CCC4C(C)(C)C(O)CC[C@]4(C)C3CCC12C (some centres undefined)
inactive: [1] 26.5 µM | [2] 21.3 µM | [3] 16.6 µM | [4] 39.6 µM | [5] 48.6 µM | [6] 4.14 µM | [7] 22.9 µM | [16] 24.8 µM | [8] 16 µM | [9] 13 µM | [10] 19.1 µM | [11] 38 µM | [12] 10.3 µM | [13] 18.2 µM | [14] 30.5 µM | [15] 14.8 µM

O=C1c2ccccc2C(=O)N1CCn1ccc(NC(c2ccccc2)(c2ccccc2)c2ccccc2)nc1=O
inactive: [1] 18.2 µM | [2] 17.6 µM | [3] 19.1 µM | [4] 49.1 µM | [5] 21.4 µM | [6] 19 µM | [7] 20.8 µM | [16] 17.1 µM | [8] 17.5 µM | [9] 20.3 µM | [10] 24 µM | [11] 25.1 µM | [12] 19.8 µM | [13] 18.2 µM | [14] 16.4 µM | [15] 12.6 µM

Cn1c2cccc3nnc4cccc(c4c32)n1C
inactive: [1] > 100 µM | [2] > 100 µM | [3] > 100 µM | [4] > 100 µM | [5] > 100 µM | [6] > 100 µM | [7] > 100 µM | [16] > 100 µM | [8] > 100 µM | [9] > 100 µM | [11] > 100 µM | [12] > 100 µM | [13] > 100 µM | [14] > 100 µM | [15] > 100 µM

CC(=O)O[C@H]1[C@H](O[C@H]2CC[C@]34C[C@]35CC[C@]3(C)[C@@H]([C@@]6(C)CC[C@@H](C(C)(C)O)O6)[C@@H](O)C[C@@]3(C)[C@@H]5C[C@H](O[C@@H]3O[C@H](CO)[C@@H](O)[C@H](O)[C@H]3O)[C@H]4C2(C)C)OC[C@@H](O)[C@@H]1O
inactive: [1] > 100 µM | [2] 46.8 µM | [3] 71.1 µM | [4] > 100 µM | [5] > 100 µM | [6] 35.6 µM | [7] > 100 µM | [16] 44 µM | [8] > 100 µM | [9] > 100 µM | [10] > 100 µM | [11] 72.6 µM | [12] 52.6 µM | [13] > 100 µM | [14] 55 µM | [15] > 100 µM

COc1cc(C[S+]2CCCC2)c(SC)cc1C[S+]1CCCC1
inactive: [1] > 100 µM | [2] > 100 µM | [3] > 100 µM | [4] > 100 µM | [5] > 100 µM | [6] > 100 µM | [7] > 100 µM | [16] > 100 µM | [8] > 100 µM | [9] > 100 µM | [10] > 100 µM | [11] > 100 µM | [12] > 100 µM | [13] > 100 µM | [14] > 100 µM | [15] > 100 µM

CCN(CC)CCCN1CCc2c([nH]c3ccccc23)C1c1cccnc1 (centres undefined)
inactive: [1] > 100 µM | [2] > 100 µM | [3] > 100 µM | [4] > 100 µM | [5] > 100 µM | [6] > 100 µM | [7] > 100 µM | [16] > 100 µM | [8] > 100 µM | [9] 74.1 µM | [10] > 100 µM | [11] > 100 µM | [12] > 100 µM | [13] 38.4 µM | [14] > 100 µM | [15] > 100 µM

CCOC(=O)c1cnc2c(ccc3ncccc32)c1NCCCN(CC)CC
inactive: [1] > 100 µM | [2] 70.3 µM | [3] > 100 µM | [4] > 100 µM | [5] > 100 µM | [6] 14.6 µM | [7] 38.3 µM | [16] 17.5 µM | [8] 23 µM | [9] > 100 µM | [10] 87.9 µM | [11] > 100 µM | [12] 38.2 µM | [13] 50 µM | [14] 72.4 µM | [15] > 100 µM

COc1ccc(N2C(=O)C(N3C(=O)C=CC3=O)C2C=O)cc1 (centres undefined)
inactive: [1] > 100 µM | [2] > 100 µM | [3] > 100 µM | [4] > 100 µM | [5] > 100 µM | [6] > 100 µM | [7] > 100 µM | [16] > 100 µM | [9] > 100 µM | [10] > 100 µM | [11] > 100 µM | [12] > 100 µM | [13] > 100 µM | [14] > 100 µM | [15] > 100 µM

CCN(CC)CC(=O)N1CCc2c([nH]c3ccccc23)C1c1cccnc1 (centres undefined)
inactive: [1] > 100 µM | [3] > 100 µM | [4] > 100 µM | [5] > 100 µM | [6] > 100 µM | [7] > 100 µM | [16] > 100 µM | [8] > 100 µM | [10] > 100 µM | [11] > 100 µM | [12] 71.8 µM | [13] > 100 µM | [14] > 100 µM | [15] > 100 µM

COC(=O)C1C2CC3C(OC(=O)C31)C2OC(=O)[C@](OC)(c1ccccc1)C(F)(F)F (some centres undefined)
inactive: [1] > 100 µM | [2] > 100 µM | [3] > 100 µM | [4] > 100 µM | [5] > 100 µM | [6] > 100 µM | [7] > 100 µM | [16] > 100 µM | [8] > 100 µM | [9] > 100 µM | [10] > 100 µM | [11] > 100 µM | [12] > 100 µM | [13] > 100 µM | [14] > 100 µM

CC/C(C)=C1\CCC(CN2CCOCC2)C1=O (centres undefined)
inactive: [1] 21.2 µM | [3] 11.9 µM | [4] 18.7 µM | [5] 24.2 µM | [6] 15.1 µM | [7] 24.3 µM | [16] 16.4 µM | [8] 22.5 µM | [9] 17.7 µM | [10] 13.8 µM | [11] 17.5 µM | [12] 2.21 µM | [13] 17.4 µM | [15] 17.6 µM

From ChEMBL document CHEMBL1201862, “PubChem BioAssay data set” (2004)
